According to US20260215418A1, “HYDROCARBON ALCOHOLS AND THEIR DERIVATIVES AS SYNERGISTS IN PESTICIDE ACTIVITY” (priority 2022, published 2026):
“Also recorded” adds a separate entry of the source.

Key:
[1] = test system: Musca domestica L.; experiment: Contact test on non-porous tile, Musca domestica; type: in vivo; conditions: for synergizing effect on Azamethiphos / synergizing effect on Cypermethrin / synergizing effect on Spinosad: Musca domestica L.; for synergizing effect on Azamethiphos: synergist applied with Azamethiphos; for synergizing effect on Cypermethrin: synergist applied with Cypermethrin; for synergizing effect on Spinosad: synergist applied with Spinosad; for mortality at 680 µg/mL: 0.68 mg/ml
[2] = test system: Blatta lateralis; experiment: Contact test on non-porous tile, Blatta lateralis; type: in vivo; conditions: Blatta lateralis; synergist applied with Imidacloprid
Experimental: 1 ml of Composition 24 was distributed on the tile. […] 1 ml of Composition 20c was distributed on a tile. […] 1 ml of Composition 20d was distributed on a tile.
1 ml of Composition 24 was distributed on the tile. […] 1 ml of Composition 28 was distributed on a tile. […] Each experiment (A-B) was conducted in duplicate.
1 ml of Composition 24 was distributed on the tile. […] 1 ml of Composition 21 was distributed on a tile.
1 ml of Composition 4b was distributed on the tile. […] 1 ml of Composition 31c was distributed on a tile. […] 1 ml of Composition 31d was distributed on a tile. […] 1 ml of Composition 31d was distributed on a tile.
1 ml of Composition 24 was distributed on the tile. […] 1 ml of Composition 35 was distributed on a tile. […] 1 ml of Composition 40b was distributed on a tile. […] 1 ml of Composition 42 was distributed on a tile.

[3] = Musca domestica, single substance alone, 48 h, read-out: Mortality %/time (h)

Compound | synergizing effect on Azamethiphos [1] | synergizing effect on Cypermethrin [1] | synergizing effect on Spinosad [1] | mortality at 150 µg/mL ([1]; Musca domestica, single substance alone, 0.15 mg/ml, 48 h, read-out: Mortality %/time (h)) | mortality at 510 µg/mL ([1]; Musca domestica, single substance alone, 0.51 mg/ml, 48 h, read-out: Mortality %/time (h)) | mortality at 680 µg/mL [1, 3] | mortality at 1020 µg/mL ([1]; Musca domestica, single substance alone, 1.02 mg/ml, 48 h, read-out: Mortality %/time (h)) | mortality at 33000 µg/mL ([1]; Musca domestica, single substance alone, 33.00 mg/ml, 48 h, read-out: Mortality %/time (h)) | synergizing effect on Imidacloprid [2] | Mortality %/time (h) ([1]; single substance alone, 0.15 mg/ml, 48 h) | Mortality %/time (h) ([1]; single substance alone, 0.51 mg/ml, 48 h) | Mortality %/time (h) ([1]; single substance alone, 0.88 mg/ml, 48 h) | Mortality %/time (h) ([1]; single substance alone, 28.53 mg/ml, 48 h)
CCCCCCCC/C=C\CCCCCCCCOC(C)=O [Oleyl acetate] | high synergizing effect | high synergizing effect | fine synergizing effect | 0% | 0% | 60% | 0% | 18% | excellent synergizing effect | – | – | – | –
Oleic alcohol [Oleic alcohol 95%] | high synergizing effect | synergistic effect, comparable to the activity shown by PBO; also recorded: good synergizing effect | – | – | – | – | – | – | same synergizing effect of PBO | 1/48 ^ % | 5/48 ^ % | 8/48 ^ % | 18/48 ^ %
CCCCCCCCOC(=O)OCCCCCCCC [dioctyl carbonate] | excellent synergizing effect | high synergizing effect | fine synergizing effect | – | – | 33% | – | – | good synergizing effect | – | – | – | –
